According to patent US8314079B2, “Hyaluronic acid oligosaccharide fractions and drugs containing the same” (Seikagaku Corporation, priority 2000, dated 2012):

Tests used:
SD male rats [1] = experiment: Gastric ulcer caused by arrest by water immersion in rats; type: in vivo, rat
Procedure: A test substance was dissolved in carboxymethylcellulose (CMC) to obtain a test solution for administration. The concentration was determined depending on the dose mentioned below so that the volume of the solution to be administered should become 10 mL/kg.
Moreover, as a positive control solution, a conventional agent for treating gastritis and gastric ulcer (teprenone, geranylgeranylacetone, trade name: Selbex, Eisai) dissolved in CMC was used. The concentration was determined so that the dose and the volume of the solution to be administered should become 1 mg/kg (clinical dose) and 10 mL/kg, respectively. As a negative control solution, 0.5% CMC was used.
SD male rats of 5-week old were divided into a “negative control solution” administered group (n=8), “HA4 4 mg/kg” administered group (n=8), “HA4 20 mg/kg” administered group (n=8), “HA4 100 mg/kg” administered group (n=8) and “positive control solution” administered group (n=8).
The rats of the groups were starved from 16:00 of the day before the first administration day, orally administered with each of the aforementioned solutions at 8:00 of the next day and arrested by water immersion. The arrest by water immersion was continued until 8:00 of the next day (24 hours). In the course of the arrest, each solution was administered in the same manner as the first administration at 16:00 and 24:00.
Then, the rats were dissected, and the stomachs were extracted. The extracted stomachs were expanded by injection of 10% buffered formalin to smoothen the holds and fixed. Then, the blood adhering to walls of stomachs was removed by washing with water.
The area ratio of ulcerous portion degenerated in a dark brown color (ulcer area/glandular stomach area) was measured by using an image analysis apparatus (Image-Pro PLUS™ Version 3.0.1, produced by Media Cybernetics). The symbols * and ** in FIG. 48 indicate significant differences with p<0.05 and p<0.01, respectively (Williams multiple range test).

Balb/c mice = experiment: Concanavalin A hepatopathy model; type: in vivo, mouse; settings: for average of GPT / average of GOT: 24 hours after ConA 15 mg/kg; for average of GPT: negative control about 5600; for average of GOT: negative control about 6000; for visual inspection of the livers (degree of hepatopathy): compared with negative and positive control solution groups
Procedure: The preparation, concentration, dose, volume to be administered etc. of the test solution are the same as those used in Experiment 1.
As a positive control solution, Stronger Neo-Minophagen C (Minophagen Pharmaceutical) was used at a dose of 5 mg/kg. This dose is the maximum clinical dose of the drug. Moreover, physiological saline was used as a negative control solution.
Balb/c mice of 8-week old were divided into a “negative control solution” administered group (n=12), “HA4 2 mg/kg” administered group (n=12), “HA4 10 mg/kg” administered group (n=12), “HA4 50 mg/kg” administered group (n=12), “positive control solution” administered group (n=12) and “normal” group (n=8).
Concanavalin A (ConA, Sigma) was injected via the caudal vein at a dose of 15 mg/kg. Then, each of the aforementioned solutions was administered via the caudal vein. Thereafter, the mice were bred for 24 hours.
The whole blood was collected from the abdominal aorta, and the GPT activity and GOT activity were measured by a clinical chemistry autoanalyzer (COBAS MIRA S, Nippon Roche). Further, the liver was extracted, and appearance of the liver was evaluated by visual inspection.

PC-12 cells = experiment: Cell death (apoptosis) of PC-12 cells in culture broth without blood serum, trypan blue staining; type: cell-based; settings: 100 ng/mL, no blood serum, 24 hours
Procedure: Therefore, each of ΔHA2, HA4, ΔHA4, HA6, ΔHA6, HA8, HA10, HA12, HA84, L4 and L4L4 was added to a culture broth containing PC-12 cells at a concentration of 100 ng/mL (containing no blood serum), 24 hours after, the cells were stained with trypan blue, and a ratio of the number of viable cells (cells not stained with trypan blue) to the total cell number was calculated.

SD male rats [2] = experiment: Carbon tetrachloride hepatopathy model; type: in vivo, rat
Procedure: A test substance was dissolved in physiological saline to obtain a test solution for administration. The concentration was determined depending on the dose mentioned below so that the volume of the solution to be administered should become 5 mL/kg.
Moreover, as a positive control solution, FAD (flavine adenine dinucleotide, Wakamoto Pharmaceutical), of which effect on the carbon tetrachloride hepatopathy model had been reported (Yakubutsu Ryouhou (Pharmacotherapy), vol. 9, Special edition, pp. 46-53), was used at a dose of 10 mg/kg. Further, physiological saline was used as a negative control solution.
SD male rats of 5-week old were divided into a “negative control solution” administered group (n=8), “HA4 2 mg/kg” administered group (n=8), “HA4 10 mg/kg” administered group (n=8), “HA4 50 mg/kg” administered group (n=8), “positive control solution” administered group (n=8) and “normal” group (n=8).
The rats of the groups were starved from 16:00 of the day before the first administration day, orally administered with 100 mg/kg of carbon tetrachloride (CCl4) before 8:00 of the next day and then intraperitoneally administered with each of the aforementioned solutions at 8:00. Thereafter, the rats were bred with maintaining starvation, and administered with each of the aforementioned solutions in the same manner as the first administration at 16:00 and 24:00. The rats were fed after the administration at 24:00 and dissected at 8:00 on the next day.
After the dissection, blood was collected, and GOT activity and leucocyte count were measured. The GOT activity was measured by using a clinical chemistry autoanalyzer (COBAS MIRA S, Nippon Roche), and the leucocyte count was measured by using an automated hematology analyzer (Sysmex K-2000, produced by Sysmex).
IL-10 in peripheral blood was measured by using IL-10 Rat ELISA (produced by ENDOGEN). IL-8 was measured by using Panatest A Series Rat CINC-1 (IL-8) (Panapharm Laboratories). The symbol of ** in FIGS. 51 and 52 indicates presence of significant difference with p<0.01 (Williams multiple range test).

[3] = HA4 2, 10, 50 mg/kg intraperitoneal, dose dependence

CC(=O)N[C@H]1[C@H](O[C@H]2[C@H](O)[C@@H](O)[C@H](O[C@H]3[C@H](O)[C@@H](CO)OC(O)[C@@H]3NC(C)=O)O[C@@H]2C(=O)O)O[C@H](CO)[C@@H](O)[C@@H]1O[C@@H]1O[C@H](C(=O)O)[C@@H](O)[C@H](O)[C@H]1O.[Na].[Na] (stereo partly drawn) [HA4, sodium β-D-glucopyranosyluronate-(1→3)-2-acetamido-2-deoxy-β-D-glucopyranosyl-(1→4)-(sodium β-D-glucopyranosyluronate)-(1→3)-2-acetamido-2-deoxy-D-glucopyranose]
area ratio of ulcerous portion (ulcer area/glandular stomach area) (SD male rats [1]; 20 mg/kg oral, compared with positive control solution (teprenone 1 mg/kg)): lower than that observed for the positive control solution group
area ratio of ulcerous portion (ulcer area/glandular stomach area) (SD male rats [1]; 100 mg/kg oral, compared with positive control solution (teprenone 1 mg/kg)): lower than that observed for the positive control solution group
area ratio of ulcerous portion (ulcer area/glandular stomach area) (SD male rats [1]; all HA4 groups (4, 20, 100 mg/kg, oral, three administrations), compared with negative control solution group): significantly reduced
average of GPT (Balb/c mice; 10 mg/kg via the caudal vein): about 2200 I.U./L
average of GOT (Balb/c mice; 10 mg/kg via the caudal vein): about 2000 I.U./L
visual inspection of the livers (degree of hepatopathy) (Balb/c mice; 10 mg/kg): lower degree of hepathopathy
average of GPT (Balb/c mice; 50 mg/kg via the caudal vein): about 1200 I.U./L
average of GOT (Balb/c mice; 50 mg/kg via the caudal vein): about 1000 I.U./L
visual inspection of the livers (degree of hepatopathy) (Balb/c mice; 50 mg/kg): lower degree of hepathopathy
suppression of cell death (ratio of the number of viable cells to the total cell number) (PC-12 cells): more notably suppressed the cell death
GOT activity (SD male rats [2]; HA4 50 mg/kg administered group, intraperitoneal, compared with negative control solution group, p<0.05): significant reduction
blood IL-10 level (SD male rats [2]; HA4 50 mg/kg, compared with negative control solution group, p<0.01): significantly higher
blood IL-8 level (SD male rats [2]; [3]): decreased in a manner dependent on the dose of HA4
blood IL-10 level (SD male rats [2]; [3]): increased in a manner dependent on the dose of HA4
peripheral leucocyte count (SD male rats [2]; HA4 groups compared with FAD 10 mg/kg (positive control)): decreased compared even with FAD
peripheral leucocyte count (SD male rats [2]; all HA4 groups (2, 10, 50 mg/kg intraperitoneal), compared with negative control solution group): significant decrease
